Results reported in patent publication EP0068038A1, “(+)-(4R,6S)-(E)-6-(2-(4'-fluoro-3,3',5-trimethyl-(1,1'-biphenyl)-2-yl)ethenyl)-3,4,5,6-tetrahydro-4-hydroxy-2H-pyran-2-one, a process for preparing and a pharmaceutical composition containing the same” (Merck & Co., Inc., priority 1981, dated 1983).
Read-outs that look alike come from different tables or passages of the source. Blank lines part the entries; values can stand above or below the molecule they belong to.

How the values were obtained:
[1] = biological target: T1, 3-hydroxy-3-methylglutaryl-coenzyme A reductase (Rattus norvegicus, UniProt P51639); details: from E.P. publication 0 024 348, cited from earlier work
T1 sequence (P51639 1-887): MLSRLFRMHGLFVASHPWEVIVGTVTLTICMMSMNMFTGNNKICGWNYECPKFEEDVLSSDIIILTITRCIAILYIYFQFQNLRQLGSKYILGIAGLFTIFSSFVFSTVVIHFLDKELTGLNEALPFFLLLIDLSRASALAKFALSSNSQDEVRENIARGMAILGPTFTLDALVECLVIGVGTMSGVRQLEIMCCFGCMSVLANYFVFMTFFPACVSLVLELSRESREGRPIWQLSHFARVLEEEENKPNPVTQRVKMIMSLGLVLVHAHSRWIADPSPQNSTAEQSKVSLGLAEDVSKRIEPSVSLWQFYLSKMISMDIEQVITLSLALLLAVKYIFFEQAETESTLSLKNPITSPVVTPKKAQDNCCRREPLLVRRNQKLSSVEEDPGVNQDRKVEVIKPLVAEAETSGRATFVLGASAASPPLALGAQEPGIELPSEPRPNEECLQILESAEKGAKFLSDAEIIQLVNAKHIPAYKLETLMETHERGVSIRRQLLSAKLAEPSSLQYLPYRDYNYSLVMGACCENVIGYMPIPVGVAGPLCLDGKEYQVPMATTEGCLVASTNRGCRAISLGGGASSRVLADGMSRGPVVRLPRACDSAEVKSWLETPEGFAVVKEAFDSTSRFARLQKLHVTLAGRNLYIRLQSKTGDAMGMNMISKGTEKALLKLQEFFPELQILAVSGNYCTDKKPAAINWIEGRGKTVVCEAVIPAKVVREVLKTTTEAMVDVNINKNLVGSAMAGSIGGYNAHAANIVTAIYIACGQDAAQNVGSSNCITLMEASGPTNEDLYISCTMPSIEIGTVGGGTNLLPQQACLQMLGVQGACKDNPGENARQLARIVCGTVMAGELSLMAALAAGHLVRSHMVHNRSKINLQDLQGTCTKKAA

[2] = biological target: T1, 3-hydroxy-3-methylglutaryl-coenzyme A reductase; assay: Method A: in vitro enzyme inhibition (method of Knauss et al.); assay type: biochemical

SMILES: O=C1CC(O)CC(CCc2c(Cl)cc(Cl)cc2OCc2ccccc2)O1 (single isomer, unassigned; (+)) [6-[2-(2,4-dichloro-6-(phenylmethoxy)phenyl)ethyl]-3,4,5,6-tetrahydro-4-hydroxy-2H-pyran-2-one]
IC50 ([1]; method A, tested as the sodium salts of the corresponding dihydroxy acid forms): 68 nM

inhibitory potency (relative, in words) ([2]; compared with the (+) trans 3,5-dichloro-4'-fluoro-biphenyl compound, tested as sodium salt of the dihydroxy acid): several times more potent
SMILES: Cc1cc(C)c(/C=C/[C@@H]2C[C@@H](O)CC(=O)O2)c(-c2ccc(F)c(C)c2)c1 [III, (+)-(4R, 6S)-(E)-6-[2-(3,3',5-trimethyl-4'-fluoro-[1,1'-biphenyl]-2-yl)ethenyl]-3,4,5,6-tetrahydro-4-hydroxy-2H-pyran-2-one]
inhibition of cholesterol biosynthesis (in words) ([2]; compared with compactin, test not specified): surpassing the inhibitory activity of compactin

SMILES: O=C1C[C@H](O)C[C@@H](/C=C/c2c(Cl)cc(Cl)cc2-c2ccc(F)cc2)O1 [(E)-6-[2-(3,5-dichloro-4'-fluoro[l,l'-biphenyl]-2-yl)ethenyl]-3,4,5,6-tetrahydro-4-hydroxy-2H-pyran-2-one]
inhibitory potency (relative, in words) ([1]; compared with the (+) trans enantiomer of the 2,4-dichloro-6-(phenylmethoxy)phenyl compound, tested as sodium salt of the dihydroxy acid): even more potent
